{"source": "patent US20250304574A1", "about": "“3,4,6,7-TETRAHYDRO-2,7-NAPHTHYRIDINE-2(1H)-CARBOXAMIDE DERIVATIVES AS GPR65 INHIBITORS FOR THE TREATMENT OF CANCER AND AUTOIMMUNE DISEASES” (Pathios Therapeutics Limited, priority 2022, published 2025)"}
{"biological_target": "human recombinant GPR65 (Homo sapiens, UniProt Q8IYL9)", "sequence (Q8IYL9 whole entry)": "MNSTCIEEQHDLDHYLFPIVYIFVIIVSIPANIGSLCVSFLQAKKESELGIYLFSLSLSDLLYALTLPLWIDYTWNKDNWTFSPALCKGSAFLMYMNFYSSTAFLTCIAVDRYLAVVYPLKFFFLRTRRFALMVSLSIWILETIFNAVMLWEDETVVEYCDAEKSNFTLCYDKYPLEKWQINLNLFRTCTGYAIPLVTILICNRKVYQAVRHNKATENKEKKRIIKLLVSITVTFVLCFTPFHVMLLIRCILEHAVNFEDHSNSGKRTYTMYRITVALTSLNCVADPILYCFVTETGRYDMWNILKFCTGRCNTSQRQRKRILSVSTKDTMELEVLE", "experiment": "Human GPR65 cAMP HTRF antagonist assay", "assay_type": "cell-based", "settings": "1321N1 cells stably expressing human recombinant GPR65, assay pH 7.2, read-out: hGPR65 IC50", "procedure": "Human GPR65 Cyclic Adenosine Monophosphate (cAMP) Homogeneous Time Resolved Fluorescence (HTRF) Antagonist Assay Procedure\nIC50 data was obtained by the following procedure:\n1321N1 human astrocytoma cells stably expressing human recombinant GPR65 (1321N1-hrGPR65 cells, EuroscreenFast) were cultured according to the vendor's instructions.\nCompounds were tested for their ability to antagonise GPR65, through measuring the concentration of cytoplasmic cAMP following treatment of the cells at a pH of 7.2 to activate GPR65 signalling and addition of the compound to be tested. The extent to which the expected rise in cAMP concentration upon GPR65 activation was suppressed by the added compound is indicative of its potency. The assay was carried out according to EuroscreenFast assay Methodology as follows.\nOn the day of the assay, test compounds were added to 384-well, low volume, white microtiter plates by acoustic dispensing. KRH buffer (5 mM KCl, 1.25 mM MgSO4, 124 mM NaCl, 25 mM HEPES, 13.3 mM Glucose, 1.25 mM KH2PO4 and 1.45 mM CaCl2) was adjusted to pH 6.5, pH 7.6 and pH 8.4 by adding NaOH. 1321N1-hGPR65 cells were rapidly thawed and diluted in KRH, pH 7.6 prior to centrifugation at 300×g for 5 min and resuspension in assay buffer (KRH, pH 7.6, supplemented with 1 mM 3-isobutyl-1-methylxanthine (IBMX) and 200 μM ethylenediaminetetraacetic acid (EDTA)). Cells were added to assay plates at a density of 2,000 cells per well in a volume of 5 μl. Assay plates were briefly centrifuged at 100×g and then incubated at room temperature for 30 min. Cells were stimulated by the addition of 5 μL KRH, pH 6.5, to achieve an assay pH of 7.2, while control wells received 5 μl KRH, pH 8.4 to achieve an assay pH of 7.9. Assay plates were briefly centrifuged at 100×g and then incubated at room temperature for 30 min.\nAccumulation of cAMP was detected by cAMP HTRF kit (Cisbio). d2-labeled cAMP and cryptate-labeled anti-cAMP antibody in Lysis and Detection Buffer (Cisbio) were added to assay plates, and the plates were incubated at room temperature for 1 h. HTRF measurements were performed using a Pherastar FSX instrument. Acceptor and donor emission signals were measured at 665 nm and 620 nm, respectively, and HTRF ratios were calculated as signal665 nm/signal620nm×10^4. Data were normalised to high and low control values and fitted with 4-parameter logistic regression to determine hGPR65 IC50 values for the test compounds, which are shown in Table 1.", "units": {"IC50": "µM"}}
{"smiles": "CC1CN(C(=O)Nc2cc(Cl)c(C(F)(F)F)cc2F)Cc2c[nH]c(=O)cc21", "note": "(racemic) [Compound 21, (±)-N-(5-chloro-2-fluoro-4-(trifluoromethyl)phenyl)-4-methyl-6-oxo-3,4,6,7-tetrahydro-2,7-naphthyridine-2(1H)-carboxamide]", "IC50": "< 0.5"}
{"smiles": "C[C@@H]1CN(C(=O)Nc2cc(Cl)c(C(F)(F)F)cc2F)Cc2c[nH]c(=O)cc21", "note": "(single isomer, unassigned; isomer 1) [Compound 25, N-(5-chloro-2-fluoro-4-(trifluoromethyl)phenyl)-4-methyl-6-oxo-3,4,6,7-tetrahydro-2,7-naphthyridine-2(1H)-carboxamide isomer 1]", "IC50": "< 0.5"}
{"smiles": "C[C@@H]1CN(C(=O)Nc2cc(Cl)c(C(F)(F)F)cc2F)Cc2ccnc(F)c21", "note": "(single isomer, unassigned; isomer 1) [Compound 28, N-(5-chloro-2-fluoro-4-(trifluoromethyl)phenyl)-5-fluoro-4-methyl-3,4-dihydro-2,6-naphthyridine-2(1H)-carboxamide isomer 1]", "IC50": "< 0.5"}
{"smiles": "C[C@H]1CN(C(=O)Nc2cc(Cl)c(C(F)(F)F)cc2F)Cc2c[nH]c(=O)cc21", "note": "(single isomer, unassigned; isomer 2) [Compound 26, N-(5-chloro-2-fluoro-4-(trifluoromethyl)phenyl)-4-methyl-6-oxo-3,4,6,7-tetrahydro-2,7-naphthyridine-2(1H)-carboxamide isomer 2]", "IC50": "< 0.5"}
{"smiles": "C[C@H]1CN(C(=O)Nc2cc(Cl)c(C(F)(F)F)cc2F)Cc2ccnc(F)c21", "note": "(single isomer, unassigned; isomer 2) [Compound 29, N-(5-chloro-2-fluoro-4-(trifluoromethyl)phenyl)-5-fluoro-4-methyl-3,4-dihydro-2,6-naphthyridine-2(1H)-carboxamide isomer 2]", "IC50": "< 0.5"}
{"smiles": "O=C(Nc1cc(Br)c(C(F)(F)F)cc1F)N1CCc2cc(=O)[nH]cc2C1", "note": "[Compound 1, N-(5-bromo-2-fluoro-4-(trifluoromethyl)phenyl)-6-oxo-3,4,6,7-tetrahydro-2,7-naphthyridine-2(1H)-carboxamide]", "IC50": "< 0.5"}
{"smiles": "O=C(Nc1cc(Cl)c(C(F)(F)F)cc1F)N1CCc2cc(=O)[nH]cc2C1", "note": "[Compound 2, N-(5-Chloro-2-fluoro-4-(trifluoromethyl)phenyl)-6-oxo-3,4,6,7-tetrahydro-2,7-naphthyridine-2(1H)-carboxamide]", "IC50": "< 0.5"}
{"smiles": "O=C(Nc1cc(Cl)c(Br)cc1F)N1CCc2cc(=O)[nH]cc2C1", "note": "[Compound 3, N-(4-Bromo-5-chloro-2-fluorophenyl)-6-oxo-3,4,6,7-tetrahydro-2,7-naphthyridine-2(1H)-carboxamide]", "IC50": "< 0.5"}
{"smiles": "O=C(Nc1cc(C(F)(F)F)on1)N1CCc2cc(=O)[nH]cc2C1", "note": "[Compound 4, 6-Oxo-N-(5-(trifluoromethyl)isoxazol-3-yl)-3,4,6,7-tetrahydro-2,7-naphthyridine-2(1H)-carboxamide]", "IC50": "< 0.5"}
{"smiles": "O=C(Nc1cc(Cl)c(C(F)(F)F)cn1)N1CCc2cc(=O)[nH]cc2C1", "note": "[Compound 5, N-(4-chloro-5-(trifluoromethyl)pyridin-2-yl)-6-oxo-3,4,6,7-tetrahydro-2,7-naphthyridine-2(1H)-carboxamide]", "IC50": "0.5 to 5"}
{"smiles": "N#Cc1ccc2c(c1)CCN(C(=O)Nc1cc(C(F)(F)F)on1)C2", "note": "[Compound 6, 6-Cyano-N-(5-(trifluoromethyl)isoxazol-3-yl)-3,4-dihydroisoquinoline-2(1H)-carboxamide]", "IC50": "0.5 to 5"}
{"smiles": "O=C(Nc1nnc(C(F)(F)F)s1)N1CCc2cc(=O)[nH]cc2C1", "note": "[Compound 7, 6-Oxo-N-(5-(trifluoromethyl)-1,3,4-thiadiazol-2-yl)-3,4,6,7-tetrahydro-2,7-naphthyridine-2(1H)-carboxamide]", "IC50": "0.5 to 5"}
{"smiles": "O=C(Nc1cc(Cl)c(Cl)cn1)N1CCc2cc(=O)[nH]cc2C1", "note": "[Compound 8, N-(4,5-Dichloropyridin-2-yl)-6-oxo-3,4,6,7-tetrahydro-2,7-naphthyridine-2(1H)-carboxamide]", "IC50": "0.5 to 5"}
{"smiles": "O=C(Nc1nnc(C(F)(F)F)s1)N1CCc2cc(F)ccc2C1", "note": "[Compound 9, 6-Fluoro-N-(5-(trifluoromethyl)-1,3,4-thiadiazol-2-yl)-3,4-dihydroisoquinoline-2(1H)-carboxamide]", "IC50": "< 0.5"}
{"smiles": "O=C(Nc1nnc(C(F)(F)F)s1)N1CCc2cc(Cl)ccc2C1", "note": "[Compound 10, 6-Chloro-N-(5-(trifluoromethyl)-1,3,4-thiadiazol-2-yl)-3,4-dihydroisoquinoline-2(1H)-carboxamide]", "IC50": "< 0.5"}
{"smiles": "O=C(Nc1cc(Cl)c(C(F)(F)F)cc1F)N1CCc2cc(F)ccc2C1", "note": "[Compound 11, N-(5-Chloro-2-fluoro-4-(trifluoromethyl)phenyl)-6-fluoro-3,4-dihydroisoquinoline-2(1H)-carboxamide]", "IC50": "< 0.5"}
{"smiles": "O=C(Nc1cc(Cl)c(Cl)cn1)N1CCc2cc(F)ncc2C1", "note": "[Compound 12, N-(4,5-Dichloropyridin-2-yl)-6-fluoro-3,4-dihydro-2,7-naphthyridine-2(1H)-carboxamide]", "IC50": "0.5 to 5"}
{"smiles": "O=C(Nc1cc(Cl)c(C(F)(F)F)cn1)N1CCc2cc(F)ncc2C1", "note": "[Compound 13, N-(4-Chloro-5-(trifluoromethyl)pyridin-2-yl)-6-fluoro-3,4-dihydro-2,7-naphthyridine-2(1H)-carboxamide]", "IC50": "0.5 to 5"}
{"smiles": "O=C1NN=C2CN(C(=O)Nc3cc(Cl)c(C(F)(F)F)cc3F)CC=C2N1", "note": "[Compound 14, N-(5-Chloro-2-fluoro-4-(trifluoromethyl)phenyl)-3-oxo-2,4,6,8-tetrahydropyrido[4,3-e][1,2,4]triazine-7(3H)-carboxamide]", "IC50": "0.5 to 5"}
{"smiles": "O=C(Nc1cc(Cl)c(C(F)(F)F)cc1F)N1CCc2cc(=O)[nH]nc2C1", "note": "[Compound 15, N-(5-Chloro-2-fluoro-4-(trifluoromethyl)phenyl)-3-oxo-2,5,6,8-tetrahydropyrido[3,4-c]pyridazine-7(3H)-carboxamide]", "IC50": "< 0.5"}
{"smiles": "O=C(Nc1cc(Cl)c(C(F)(F)F)cn1)N1CCc2c(ccnc2F)C1", "note": "[Compound 16, N-(4-chloro-5-(trifluoromethyl)pyridin-2-yl)-5-fluoro-3,4-dihydro-2,6-naphthyridine-2(1H)-carboxamide]", "IC50": "< 0.5"}
{"smiles": "O=C(Nc1cc(Cl)c(C(F)(F)F)cc1F)N1CCc2c(ccnc2F)C1", "note": "[Compound 17, N-(5-Chloro-2-fluoro-4-(trifluoromethyl)phenyl)-5-fluoro-3,4-dihydro-2,6-naphthyridine-2(1H)-carboxamide]", "IC50": "< 0.5"}
{"smiles": "CS(=O)(=O)c1nnc2c(n1)CCN(C(=O)Nc1cc(Cl)c(C(F)(F)F)cc1F)C2", "note": "[Compound 18, N-(5-chloro-2-fluoro-4-(trifluoromethyl)phenyl)-3-(methylsulfonyl)-5,8-dihydropyrido[4,3-e][1,2,4]triazine-7(6H)-carboxamide]", "IC50": "0.5 to 5"}
{"smiles": "O=C(Nc1cc(Cl)c(Cl)cn1)N1CCc2c(ccnc2F)C1", "note": "[Compound 19, N-(4,5-Dichloropyridin-2-yl)-5-fluoro-3,4-dihydro-2,6-naphthyridine-2(1H)-carboxamide]", "IC50": "< 0.5"}
{"smiles": "CC1CN(C(=O)Nc2cc(Cl)c(C(F)(F)F)cc2F)Cc2cnc(F)cc21", "note": "(centres unmarked) [Compound 20, N-(5-Chloro-2-fluoro-4-(trifluoromethyl)phenyl)-6-fluoro-4-methyl-3,4-dihydro-2,7-naphthyridine-2(1H)-carboxamide]", "IC50": "0.5 to 5"}
{"smiles": "C=C1CN(C(=O)Nc2cc(Cl)c(C(F)(F)F)cc2F)Cc2cnc(F)cc21", "note": "[Compound 22, N-(5-Chloro-2-fluoro-4-(trifluoromethyl)phenyl)-6-fluoro-4-methylene-3,4-dihydro-2,7-naphthyridine-2(1H)-carboxamide]", "IC50": "0.5 to 5"}
{"smiles": "CC1CN(C(=O)Nc2cc(Cl)c(C(F)(F)F)cc2F)Cc2ccnc(F)c21", "note": "(centres unmarked) [Compound 23, N-(5-Chloro-2-fluoro-4-(trifluoromethyl)phenyl)-5-fluoro-4-methyl-3,4-dihydro-2,6-naphthyridine-2(1H)-carboxamide]", "IC50": "< 0.5"}
{"smiles": "C=C1CN(C(=O)Nc2cc(Cl)c(C(F)(F)F)cc2F)Cc2ccnc(F)c21", "note": "[Compound 24, N-(5-Chloro-2-fluoro-4-(trifluoromethyl)phenyl)-5-fluoro-4-methylene-3,4-dihydro-2,6-naphthyridine-2(1H)-carboxamide]", "IC50": "< 0.5"}
{"smiles": "O=C(Nc1cc(Cl)c(C(F)(F)F)cc1F)N1Cc2ccnc(F)c2C(F)C1", "note": "(centres unmarked) [Compound 27, N-(5-chloro-2-fluoro-4-(trifluoromethyl)phenyl)-4,5-difluoro-3,4-dihydro-2,6-naphthyridine-2(1H)-carboxamide]", "IC50": "< 0.5"}
